Values quoted from earlier work in patent publication US20240397950A1, “DISINFECTANT COMPOSITION” (OTSUKA PHARMACEUTICAL FACTORY, INC., priority 2018, published 2024).

pH at which a dilute aqueous solution causes precipitation: ≥ 8
Structure (SMILES): N=C(NCCCCCCNC(=N)NC(=N)Nc1ccc(Cl)cc1)NC(=N)Nc1ccc(Cl)cc1.O=C(O)[C@H](O)[C@@H](O)[C@H](O)[C@H](O)CO.O=C(O)[C@H](O)[C@@H](O)[C@H](O)[C@H](O)CO [Chlorhexidine gluconate]
